Where a name gives a salt, the structure may show the parent alone.
Tested on: MTT (mouse pheochromocytoma)
Experiment: IC50 of cell viability (ATP content)
Settings: (24 or 48 h)
How it was run: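 Each well of a white 1536-well plate received 5 µl of MTT mouse pheochromocytoma cells at 200,000 cells/ml in DMEM containing 5% FBS and 1% horse serum. After overnight culture at 37°C, 5% CO2, cells were exposed for 24 or 48 hrs to 23 nl of library compound in DMSO, pinned at 8 final concentrations from 0.5 nM to 46 µM. CellTiter-Glo luminescence was read after 15 minutes, and IC50 was obtained from a four-parameter logistic fit of signals normalised to positive-control and DMSO wells.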

OCC1(CO)COC(C(Cl)(Cl)Cl)OC1 [Penthrichloral]
IC50 of cell viability: > 46 µM

C[N+]1(CCCCC[N+]2(C)CCCC2)CCCC1.O=C([O-])[C@@H](O)[C@@H](O)C(=O)O.O=C([O-])[C@@H](O)[C@@H](O)C(=O)O [Pentolinium bitartrate]
IC50 of cell viability: > 46 µM

OC[C@H]1O[C@@H](n2cnc3c2N=CNC[C@H]3O)C[C@@H]1O [Pentostatin]
IC50 of cell viability: > 46 µM

CC(=O)CCCCn1c(=O)c2c(ncn2C)n(C)c1=O [Pentoxifylline]
IC50 of cell viability: > 46 µM

CN1CCN(CCCN2c3ccccc3Sc3ccccc32)CC1 [Perazine]
IC50 of cell viability: > 46 µM

FC(F)(F)C(F)(F)C(F)(F)C(F)(F)C(F)(F)C(F)(F)C(F)(F)C(F)(F)Br [Perflubron]
IC50 of cell viability: > 46 µM

O=[S+]([O-])(O)C(F)(F)C(F)(F)C(F)(F)C(F)(F)C(F)(F)C(F)(F)C(F)(F)C(F)(F)F [Perfluorooctane sulfonic acid]
IC50 of cell viability: > 46 µM

CCCCCCCCCCCCCCCCCCOP(=O)([O-])OC1CC[N+](C)(C)CC1 [Perifosine]
IC50 of cell viability: > 46 µM

CCC[C@@H](N[C@@H](C)C(=O)N1[C@@H](C(=O)O)C[C@@H]2CCCC[C@@H]21)C(=O)OCC [Perindopril]
IC50 of cell viability: > 46 µM

CN1CCN(C2=Nc3ccccc3Cc3ccccc32)CC1 [Perlapine]
IC50 of cell viability: > 46 µM

OCCN1CCN(CCCN2c3ccccc3Sc3ccc(Cl)cc32)CC1 [Perphenazine]
IC50 of cell viability: > 46 µM

CN1CCN(C(=O)C2CCCCC2)CC1 [Pexantel]
IC50 of cell viability: > 46 µM

C=C(Nc1ccc(OCC)cc1)Nc1ccc(OCC)cc1 [Phenacaine hydrochloride]
IC50 of cell viability: > 46 µM

CCOc1ccc(/N=C(\C)Nc2ccc(OCC)cc2)cc1 [Phenacaine hydrochloride]
IC50 of cell viability: > 46 µM

CCOc1ccc(NC(C)=O)cc1 [Phenacetin]
IC50 of cell viability: > 46 µM

CN1N(C(=O)/C=C1/C)C2=CC=CC=C2 [Phenazone]
IC50 of cell viability: > 46 µM

[K+].C[C@H](OC1=CC=CC=C1)C(=O)N[C@H]2[C@@H]3SC(C)(C)[C@@H]([N@@]3C2=O)C([O-])=O [Phenethicillin potassium salt]
IC50 of cell viability: > 46 µM

N=C(N)NC(=N)NCCc1ccccc1.[Cl-].[H+] [Phenformin HCl]
IC50 of cell viability: > 46 µM

N=C(N)NC(=N)NCCc1ccccc1 [Phenformin hydrochloride]
IC50 of cell viability: > 46 µM

O=C1c2ccccc2C(=O)C1c1ccccc1 [Phenindione]
IC50 of cell viability: > 46 µM

C[NH+](C)CCC(c1ccccc1)c1cccc[nH+]1.O=C([O-])CC(=O)[O-] (stereo not drawn) [Pheniramine maleate]
IC50 of cell viability: > 46 µM

CC1NCCOC1c1ccccc1 (stereo not drawn) [Phenmetrazine Hydrochloride]
IC50 of cell viability: > 46 µM

Oc1ccccc1 [Phenol]
IC50 of cell viability: > 46 µM

O=C1OC(c2ccc(O)cc2)(c2ccc(O)cc2)c2ccccc21 [Phenolphthalein]
IC50 of cell viability: > 46 µM

c1ccc2c(c1)Nc1ccccc1S2 [Phenothiazine]
IC50 of cell viability: > 46 µM

O=C(O)COc1ccccc1 [Phenoxy acetic acid]
IC50 of cell viability: > 46 µM

CC(COc1ccccc1)N[NH3+] (stereo not drawn) [Phenoxypropazine]
IC50 of cell viability: > 46 µM

NC(=O)OCCCc1ccccc1 [Phenprobamate]
IC50 of cell viability: > 46 µM

CN1C(=O)C[C@H](c2ccccc2)C1=O [Phensuximide]
IC50 of cell viability: > 46 µM

CN(C)CCOc1ccccc1Cc1ccccc1.Nc1ccc(C(=O)O)c(O)c1 [Phentoloxamine and PAS]
IC50 of cell viability: > 46 µM

O=C(CCCCCCCCC#CI)Oc1ccccc1 [Phenyl 11-iodo-10-undecynoate]
IC50 of cell viability: > 46 µM

O=C(Oc1ccccc1)c1ccccc1O [Phenyl salicylate]
IC50 of cell viability: > 46 µM

CCCCC1C(=O)N(c2ccccc2)N(c2ccccc2)C1=O [Phenylbutazone]
IC50 of cell viability: > 46 µM

C[C@H](N)[C@@H](O)c1ccccc1 [Phenylpropanolamine hydrochloride]
IC50 of cell viability: > 46 µM

COP(=S)(OC)SCN1C(=O)c2ccccc2C1=O [Phosmet]
IC50 of cell viability: > 46 µM

O=C(O)CP(=O)(O)O [Phosphonoacetic acid]
IC50 of cell viability: > 46 µM

O=P(O)(O)OP(=O)(O)O [Phosphotex]
IC50 of cell viability: > 46 µM

CCOP(=S)(OCC)O/N=C(\C#N)c1ccccc1 [Phoxim]
IC50 of cell viability: > 46 µM

CC1=C(C/C=C(\C)CCCC(C)CCCC(C)CCCC(C)C)C(=O)c2ccccc2C1=O (stereo not drawn) [Phytonadione]
IC50 of cell viability: > 46 µM

NNc1nnc(Cc2ccncc2)c2ccccc12 [Picodralazine]
IC50 of cell viability: > 46 µM

NCc1cccnc1 [Picolamina]
IC50 of cell viability: > 46 µM

OCc1ccccn1 [Piconol]
IC50 of cell viability: > 46 µM

O=S(=O)([O-])Oc1ccc(C(c2ccc(OS(=O)(=O)[O-])cc2)c2ccccn2)cc1 [Picosulfate sodium]
IC50 of cell viability: > 46 µM

C=C(C)[C@@H]1C2OC(=O)C1[C@]1(O)C[C@H]3O[C@]34C(=O)O[C@H]2[C@]14C.CC(C)(O)[C@@H]1C2OC(=O)[C@@H]1[C@]1(O)C[C@H]3O[C@]34C(=O)O[C@H]2[C@]14C [Picrotoxin]
IC50 of cell viability: > 46 µM

O=C1CC[C@@H](C(=O)N2CSC[C@H]2C(=O)O)N1 [Pidotimod]
IC50 of cell viability: > 46 µM

C/C(=N\O)c1ccc(OCC(=O)N2CCCCC2)cc1 [Pifoxime]
IC50 of cell viability: > 46 µM

O=C1CCCCC1CN1CCCCC1 (stereo not drawn) [Pimeclone]
IC50 of cell viability: > 46 µM

CC(=O)O[C@H]1C[C@@H]2CC[C@@H]3[C@H](CC[C@]4(C)[C@H](OC(C)=O)[C@@H](N5CC[N+](C)(C)CC5)C[C@@H]34)[C@@]2(C)C[C@@H]1N1CC[N+](C)(C)CC1 [Pipecuronium]
IC50 of cell viability: > 46 µM

CCN1\C=C(\C(O)=O)C(=O)C2=C1N=C(N=C2)N3CCNCC3 [Pipemidic acid]
IC50 of cell viability: > 46 µM

[Na+].CCN1CCN(C(=O)N[C@H](C(=O)N[C@H]2[C@@H]3SC(C)(C)[C@@H]([N@]3C2=O)C([O-])=O)C4=CC=CC=C4)C(=O)C1=O [Piperacillin sodium salt]
IC50 of cell viability: > 46 µM

C1CNCCN1 [Piperazine]
IC50 of cell viability: > 46 µM

CCN1CCC[C@H](OC(=O)C(c2ccccc2)c2ccccc2)C1 [Piperidolate hydrochloride]
IC50 of cell viability: > 46 µM

CCCCOCCOCCOCc1cc2c(cc1CCC)OCO2 [Piperonyl butoxide]
IC50 of cell viability: > 46 µM

CN1CCN(c2cc3c(nn2)Oc2ccccc2N3C)CC1 [Pipofezine]
IC50 of cell viability: > 46 µM

CCCCCCCCCCCCCCCC(=O)OCCC1CCN(CCCN2c3ccccc3Sc3ccc([S+](=O)([O-])N(C)C)cc32)CC1 [Pipothiazine palmitate]
IC50 of cell viability: > 46 µM

NC(=O)CN1CCCC1=O [Piracetam]
IC50 of cell viability: > 46 µM

N[S+](=O)([O-])c1cc(C(=O)O)cc(N2CCCC2)c1Oc1ccccc1 [Piretanide]
IC50 of cell viability: > 46 µM

CC/1=C/N(C(=O)/C=C1)C2=CC=CC=C2 [Pirfenidone]
IC50 of cell viability: > 46 µM

CCN1\C=C(\C(O)=O)C(=O)C2=C1N=C(N=C2)N3CCCC3 [Piromidic acid]
IC50 of cell viability: > 46 µM

CN1\C(=C(\O)C2=C(C=CC=C2)[S+]1([O-])=O)C(=O)NC3=CC=CC=N3 [Piroxicam]
IC50 of cell viability: > 46 µM

O=C(O)CC(O)CC(O)/C=C/c1c(C2CC2)nc2ccccc2c1-c1ccc(F)cc1 (stereo not drawn) [Pitavastatin]
IC50 of cell viability: > 46 µM

COC(=O)c1ccccc1C(=O)c1ccc(OCCN2CCCCC2)cc1 [Pitofenona]
IC50 of cell viability: > 46 µM

CC(C)(C)C(=O)NCCCC(=O)O [Pivagabine]
IC50 of cell viability: > 46 µM

CC(C)(C)C(=O)OCOC(=O)[C@@H]1[N@]2[C@@H](SC1(C)C)[C@H](NC(=O)[C@@H](N)C3=CC=CC=C3)C2=O [Pivampicillin]
IC50 of cell viability: > 46 µM

CC(C)(C)C(=O)OCOC(=O)[C@@H]1[N@]2[C@@H](SC1(C)C)[C@H](\N=C/N3CCCCCC3)C2=O [Pivmecillinam hydrochloride]
IC50 of cell viability: > 46 µM

CC(C)(C)C(=O)OCOC(=O)C1N2C(=O)CC2[S+](=O)([O-])C1(C)C (stereo not drawn) [Pivoxil Sulbactam]
IC50 of cell viability: > 46 µM

C=C[C@]1(C)C[C@@H](OC(=O)CO)[C@]2(C)C(C)CC[C@]3(CCC(=O)[C@H]32)[C@@H](C)[C@@H]1O (stereo partly drawn) [Pleuromutilin]
IC50 of cell viability: > 46 µM

NCCCC(N)C(=O)O [Poly-L-ornithine hydrochloride]
IC50 of cell viability: > 46 µM

CCC(C)CCCCC(=O)N[C@@H](CC[NH3+])C(=O)N[C@H](C(=O)N[C@@H](CC[NH3+])C(=O)N[C@H]1CCNC(=O)C([C@@H](C)O)NC(=O)[C@@H](CCN)NC(=O)[C@H](CCN)NC(=O)[C@H](CC(C)C)NC(=O)[C@@H](CC(C)C)NC(=O)[C@H](CCN)NC1=O)[C@@H](C)O (stereo partly drawn) [Polymyxin E1]
IC50 of cell viability: > 46 µM

CN1C(CSCC(F)(F)F)Nc2cc(Cl)c([S+](N)(=O)[O-])cc2[S+]1(=O)[O-] (stereo not drawn) [Polythiazide]
IC50 of cell viability: > 46 µM

CC[C@@H]([C@H](C)O)N1\N=C/N(C1=O)C2=CC=C(C=C2)N3CCN(CC3)C4=CC=C(OCC5CO[C@@](C5)(C[N]6C=NC=N6)C7=C(F)C=C(F)C=C7)C=C4 (stereo partly drawn) [Posaconazole]
IC50 of cell viability: > 46 µM

O=S(=O)([O-])C(F)(F)C(F)(F)C(F)(F)C(F)(F)F [Potassium nonafluoro-1-butanesulfonate]
IC50 of cell viability: > 46 µM

C#CC[C@H](Cc1cnc2nc(N)nc(N)c2n1)c1ccc(C(=O)NC(CCC(=O)O)C(=O)O)cc1 (stereo partly drawn) [Pralatrexate]
IC50 of cell viability: > 46 µM
